One assay concerns the target Jak2 (Jak2-WT) (Mus musculus, UniProt Q62120). Nature of the assay: autophosphorylation. The assay is classed as cell-based.
A further assay concerns the target Jak2-V617F (Mus musculus, UniProt Q62120, V617F). Put plainly: autophosphorylation. In kind it is cell-based.

In general, IC50 refers to the concentration at which inhibition is half-maximal.

Chain of Jak2-V617F (Q62120 whole entry V617F): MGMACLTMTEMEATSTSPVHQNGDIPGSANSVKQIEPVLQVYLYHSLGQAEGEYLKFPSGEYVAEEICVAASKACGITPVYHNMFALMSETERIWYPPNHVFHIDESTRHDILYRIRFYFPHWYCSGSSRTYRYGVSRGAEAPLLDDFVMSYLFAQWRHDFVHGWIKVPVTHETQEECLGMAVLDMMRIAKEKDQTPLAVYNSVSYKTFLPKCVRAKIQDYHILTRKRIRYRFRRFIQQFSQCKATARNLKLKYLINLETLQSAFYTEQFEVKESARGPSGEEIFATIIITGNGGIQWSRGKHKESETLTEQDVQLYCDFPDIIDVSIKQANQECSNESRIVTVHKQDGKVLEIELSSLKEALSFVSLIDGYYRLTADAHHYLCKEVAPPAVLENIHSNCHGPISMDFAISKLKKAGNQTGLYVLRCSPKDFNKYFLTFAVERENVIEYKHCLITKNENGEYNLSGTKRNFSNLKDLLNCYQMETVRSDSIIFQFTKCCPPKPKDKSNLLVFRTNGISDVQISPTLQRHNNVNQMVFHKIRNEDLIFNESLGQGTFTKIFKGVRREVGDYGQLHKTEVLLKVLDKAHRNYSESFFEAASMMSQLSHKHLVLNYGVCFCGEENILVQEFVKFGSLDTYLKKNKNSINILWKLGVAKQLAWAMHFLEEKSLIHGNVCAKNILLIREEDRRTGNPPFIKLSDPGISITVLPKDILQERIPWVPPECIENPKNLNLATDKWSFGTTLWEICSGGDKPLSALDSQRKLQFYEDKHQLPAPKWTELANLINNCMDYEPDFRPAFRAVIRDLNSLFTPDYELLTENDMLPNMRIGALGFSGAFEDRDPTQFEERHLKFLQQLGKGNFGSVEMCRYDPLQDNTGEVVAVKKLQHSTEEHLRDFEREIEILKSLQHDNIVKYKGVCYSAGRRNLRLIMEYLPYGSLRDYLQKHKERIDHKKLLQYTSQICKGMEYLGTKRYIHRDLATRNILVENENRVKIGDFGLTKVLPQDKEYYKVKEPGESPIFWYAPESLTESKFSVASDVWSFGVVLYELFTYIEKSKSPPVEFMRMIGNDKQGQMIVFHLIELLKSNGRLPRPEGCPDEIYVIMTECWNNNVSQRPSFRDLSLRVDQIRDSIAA
Chain of Jak2 (Jak2-WT) (Q62120 whole entry): as the sequence (Q62120 whole entry V617F) above, with F617V counted along it

Take `CC(CCc1ccccn1)(CCc1ccccn1)C(=O)c1ccccc1` [Z3, 2-methyl-1-phenyl-4-pyridin-2-yl-2-(2-pyridin-2-ylethyl)butan-1-one]: the results for the IC50 against Jak2 (Jak2-WT) and against Jak2-V617F were ~15 µM and ~28 µM, respectively.

Values taken from paper PMC2579271 (Molecular cancer therapeutics, 2008).
